IC50 data for three compounds are collected here from BindingDB's records for doi:10.1021/jm00157a006 (1987).

Non-standard residues stand in square brackets, D forms with d. Residues, ends and D or L forms follow the SMILES beside them. *: point of attachment. Ala(1-Adamantyl) = N[C@@H](CC12CC3CC(CC(C3)C1)C2)C(=O)O; Sta = CC(C)C[C@H](N)[C@@H](O)CC(=O)O; Cbz = O=C(OCc1ccccc1)*; Boc = CC(C)(C)OC(=O)*

In assay [1] the target is Renin (Sus scrofa). Put plainly: Inhibition of hog […] plasma renin activity.
In assay [2] the target is Renin (Sus scrofa). Put plainly: In vitro inhibitory activity against hog plasma renin.

The compound `COC(=O)C[C@H](O)[C@H](CC(C)C)NC(=O)[C@H](C)NC(=O)C[C@H](O)[C@H](CC(C)C)NC(=O)[C@@H](NC(=O)[C@H](Cc1c[nH]c2ccccc12)NC(=O)OCc1ccccc1)C(C)C` [4-[2-(4-{2-[2-Benzyloxycarbonylamino-3-(1H-indol-3-yl)-propionylamino]-3-methyl-butyrylamino}-3-hydroxy-6-methyl-heptanoylamino)-propionylamino]-3-hydroxy-6-methyl-heptanoic acid methyl ester] (Cbz-WV[Sta]A[Sta]-OMe) had a half-maximal inhibitory concentration (IC50) in assay [1] of 0.015 µM. In other words, the double-digit nanomolar range. Take `COC(=O)C[C@H](O)[C@H](CC(C)C)NC(=O)[C@H](C)NC(=O)C[C@H](O)[C@H](CC(C)C)NC(=O)[C@H](Cc1c[nH]cn1)NC(=O)[C@H](CC12CC3CC(CC(C3)C1)C2)NC(=O)OC(C)(C)C` [4-(2-{4-[2-(3-Adamantan-1-yl-2-tert-butoxycarbonylamino-propionylamino)-3-(1H-imidazol-4-yl)-propionylamino]-3-hydroxy-6-methyl-heptanoylamino}-propionylamino)-3-hydroxy-6-methyl-heptanoic acid methyl ester] (Boc-[Ala(1-Adamantyl)]H[Sta]A[Sta]-OMe): 0.6 µM corresponded to half-maximal inhibition in assay [2] (IC50). For the compound `COC(=O)C[C@H](O)[C@H](CC(C)C)NC(=O)[C@H](C)NC(=O)C[C@H](O)[C@H](CC(C)C)NC(=O)[C@H](Cc1ccccc1)NC(=O)[C@H](Cc1ccccc1)NC(=O)OC(C)(C)C` [4-(2-{4-[2-(2-tert-Butoxycarbonylamino-3-phenyl-propionylamino)-3-phenyl-propionylamino]-3-hydroxy-6-methyl-heptanoylamino}-propionylamino)-3-hydroxy-6-methyl-heptanoic acid methyl ester], in assay [2], the half-inhibitory concentration (IC50) stood at 0.052 µM. Against the preceding compound, the IC50 is about 12-fold lower.

As a reminder, the IC50 is the concentration that gives 50% inhibition. Higher therefore signals weaker potency in that assay.
